Test results reported in US11857544B2, “Composition or method including (t)ew-7197 for treating or preventing corneal endothelial diseases” (THE DOSHISHA, priority 2017, dated 2024).

Assays:
[1] = tested on: immortalized human corneal endothelial cells from a Fuchs' endothelial corneal dystrophy patient (iFECD); assay: Suppression of TGF-β-induced corneal endothelial cell disorder, observed under a phase contrast microscope; type: cell-based; settings: for effect of suppressing corneal endothelial cell disorder: Example 1, iFECD, 24 h pretreatment then 10 ng/ml TGF-β 24 h
Description: The medium was removed from a culture dish culturing immortalized human corneal endothelial cells from a Fuchs' endothelial corneal dystrophy patient (iFECD), and 1×PBS(-) preheated to 37° C. was added and washed. This was repeated twice. 1×PBS(-) was added again and the medium was incubated for 5 minutes at 37° C. (5% CO2). After removing the PBS(-), 0.05% Trypsin-EDTA (Nacalai Tesque, 32778-34) was added and incubated for 5 minutes at 37° C. (5% CO2). The medium was then suspended and centrifuged for 3 minutes at 1500 rpm to retrieve cells. DMEM (Nacalai Tesque, 08456-36)+10% FBS (Biowest, S1820-500)+1% P/S (Nacalai Tesque, 26252-94) was used as the medium. The immortalized human corneal endothelial cells from a Fuchs' endothelial corneal dystrophy patient (iFECD) were seeded on a 12-well plate at a ratio of 8.0×10^4 cells per well and cultured for 24 hours at 37° C. (5% CO2). DMEM+10% FBS+1% P/S was used as the medium. After 24 hours, the medium was exchanged and cultured again for 24 hours. DMEM+2% FBS+1% P/S was used as the medium. After 24 hours, the medium was removed. 10 ng/ml of Transforming Growth Factor-132 Human recombinant (WAKO, 200-19911) was added, and the medium was cultured for 24 hours. DMEM+2% FBS+1% P/S was used as the medium. After 24 hours, the cell morphology and apoptosis were observed under a phase contrast microscope. After […] were seeded on a 12-well plate and cultured for 24 hours, the medium was removed. SB431542 (WAKO, 192-16541) and EW-7197 (Selleck Chemicals, 57530) were added so that the final concentration would each be 0.1, 0.3, 1, 3, or 10 μM, and the medium was cultured for 24 hours. DMEM+2% FBS+1% P/S was used as the medium. After 24 hours, the medium was removed. 10 ng/ml of Transforming Growth Factor-132 Human recombinant (WAKO, 200-19911) as well as SB431542 and EW-7197 were added so that the final concentration would each be 0.1, 0.3, 1, 3, or 10 μM, and the medium was cultured for 24 hours. DMEM+2% FBS+1% P/S was used as the medium. After 24 hours, the cell morphology and apoptosis were observed under a phase contrast microscope. After […] were seeded on a 12-well plate at a ratio of 7.0×10^4 cells and cultured for 24 hours, the medium was removed. EW-7197 (Selleck Chemicals, 57530) was added so that the final concentration would be 0.001, 0.003, 0.01, 0.03, 0.1, 0.3, 1, 3, 10, or 30 μM, and the medium was cultured for 24 hours. DMEM+2% FBS+1% P/S was used as the medium. After 24 hours, the medium was removed. 10 ng/ml of Transforming Growth Factor-132 Human recombinant (WAKO, 200-19911) and EW-7197 were added so that the final concentration would be 0.001, 0.003, 0.01, 0.03, 0.1, 0.3, 1, 3, 10, or 30 μM, and the medium was cultured for 24 hours. DMEM+2% FBS+1% P/S was used as the medium. After 24 hours, the cell morphology and apoptosis were observed under a phase contrast microscope.

Caspase 3/7 = Caspase 3/7 activity (Caspase-Glo 3/7 Assay) in TGF-β-stimulated iFECD; type: cell-based, human; settings: in the order of 0.01, 0.1, 1, and 10 μM
Description: were seeded on a 96-well plate at a ratio of 3×10^3 cells per well, and cultured until reaching confluence at 37° C. (5% CO2). DMEM+10% FBS+1% P/S was used as the medium. After 24 hours, the medium was removed. SB431542 (WAKO, 192-16541) and EW-7197 (Selleck Chemicals, 57530) were added so that the final concentration would each be 0.01, 0.1, 1, or 10 μM, and the medium was cultured for 24 hours. DMEM+2% FBS+1% P/S was used as the medium. After 24 hours, the medium was removed. 10 ng/ml of Transforming Growth Factor-132 Human recombinant (WAKO, 200-19911) and SB431542 were added so that the final concentration would be 0.01, 0.1, 1, and 10 μM, and the medium was cultured for 24 hours. DMEM+2% FBS+1% P/S was used as the medium. After 24 hours, the cell morphology was observed under a phase contrast microscope. After observation, Caspase 3/7 activity was measured using Caspase-Glo 3/7 Assay by the following procedures. The medium was discarded so that the amount would be 50 μl per well, and a Caspase Glo 3/7 Assay Reagent (mixture of Caspase-Glo 3/7 Assay Buffer and Caspase-Glo 3/7 Assay Substrate) (Promega, G8091) solution was added at 50 μl/well so that the ratio thereof to the medium would be 1:1. The process was hereinafter conducted without exposure to light. The mixture was mixed thoroughly using a shaker for 2 minutes at about 120 min^-1, and incubated for 40 minutes at room temperature. After the incubation, 80 μl was transferred to an Assay plate (Corning, 3912, Assay plate 96 well, white polystyrene), and absorbance was measured using a GloMax-Multi Detection System (Promega, E7051). A caspase inhibitor, i.e., 10μ MZ-VD-FMK (WAKO, 262-02061) was used as a positive control.

iFECD = assay: Cell survival rate (Cell Titer-Glo Luminescent Cell Viability Assay); type: cell-based, human; settings: iFECD; all concentrations of 0.01, 0.1, 1, and 10 μM; 48 hours
Description: were seeded on a 96-well plate at a ratio of 3×10^3 cells per well, and cultured until reaching confluence at 37° C. (5% CO2). DMEM+10% FBS+1% P/S was used as the medium. After 24 hours, the medium was removed. SB431542 (WAKO, 192-16541) and EW-7197 (Selleck Chemicals, 57530) were added so that the final concentration would each be 0.01, 0.1, 1, or 10 μM, and the medium was cultured for 48 hours. DMEM+2% FBS+1% P/S was used as the medium. After 24 hours, the cell morphology was observed under a phase contrast microscope. After observation, the cell survival rate was analyzed using Cell Titer-Glo Luminescent Cell Viability Assay by the following procedures. The medium was discarded so that the amount would be 50 μl per well, and Cell Titer-Glo Luminescent Cell Viability Assay solution (Promega, G7572) was added at 50 μl/well so that the ratio to the medium would be 1:1. The process was hereinafter conducted without exposure to light. The mixture was mixed thoroughly using a shaker for 2 minutes at about 120 min^-1, and incubated for 10 minutes. After the incubation, 80 μl was transferred to an Assay plate (Corning, 3912, Assay plate 96 well, white polystyrene), and absorbance was measured using a GloMax-Multi Detection System (Promega, E7051).

NC(=O)c1ccc(-c2nc(-c3ccc4c(c3)OCO4)c(-c3ccccn3)[nH]2)cc1 [SB431542, reference compound]
effect of suppressing corneal endothelial cell disorder ([1]; compound at 3 μM and 10 μM): suppressed | effect of suppressing corneal endothelial cell disorder ([1]; compound at 10 μM): effectively suppressed | effect of suppressing corneal endothelial disorders ([1]; summary statement, at sub-μM (1 μM to 0.1 μM)): not observed | activity of Caspase 3/7 (Caspase 3/7): reduced | cell survival rate compared to a control group (iFECD): a significant difference was not found
